Reference: patent US7396837B2, “Antitumoral analogs of lamellarins” (Pharma Mar, S.A.U., priority 2002, dated 2008)

The compounds below were run on SK-MEL-28 (assay: SRB colorimetric cell growth inhibition assay, SK-MEL-28). Conditions: Homo sapiens, SK-MEL-28, MEL-28; GI=growth inhibition; read-out: GI50 MEL-28.
Assay type: cell-based
Procedure, shortened: (§1)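 Continuous drug exposure of human cancer cells; SRB protein stain read-out; triplicate wells, mean ± SD; GI, TGI, LC computed.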
Compound COc1cc2c(cc1O)CCn1c-2cc2c3cc(OC)c(O)cc3oc(=O)c21 [Compound 196] has a GI50 of 0.675 µM.

Same assay, conditions: Homo sapiens, SK-MEL-28, MEL-28; cell killing (cytotoxic effect); read-out: LC50 MEL-28
With COc1cc2c(cc1O)CCn1c-2cc2c3cc(OC)c(O)cc3oc(=O)c21 [Compound 196] the CC50 was 26.4 µM.

Same assay, conditions: Homo sapiens, SK-MEL-28, MEL-28; total growth inhibition (cytostatic effect); read-out: TGI MEL-28
Compound COc1cc2c(cc1O)CCn1c-2cc2c3cc(OC)c(O)cc3oc(=O)c21 [Compound 196] has an IC (TGI) of 8.99 µM.

The compounds below were run on SK-BR-3 (assay: SRB colorimetric cell growth inhibition assay, SK-BR-3). Conditions: Homo sapiens, SK-BR-3, SK-BR-3; GI=growth inhibition; read-out: GI50 SK-BR-3.
Assay type: cell-based
Procedure, shortened: as §1
Work on COc1cc2c(cc1O)CCn1c-2cc2c3cc(OC)c(O)cc3oc(=O)c21 [Compound 196] yielded a GI50 of 0.654 µM.

Same assay, conditions: Homo sapiens, SK-BR-3, SK-BR-3; cell killing (cytotoxic effect); read-out: LC50 SK-BR-3
With COc1cc2c(cc1O)CCn1c-2cc2c3cc(OC)c(O)cc3oc(=O)c21 [Compound 196] the CC50 was 26.4 µM.

Same assay, conditions: Homo sapiens, SK-BR-3, SK-BR-3; total growth inhibition (cytostatic effect); read-out: TGI SK-BR-3
COc1cc2c(cc1O)CCn1c-2cc2c3cc(OC)c(O)cc3oc(=O)c21 [Compound 196] was tested, and the IC (TGI) was 1.65 µM.

What follows are compounds tested on K-562 (assay: SRB colorimetric cell growth inhibition assay, K-562). Conditions: Homo sapiens, K562, K-562; GI=growth inhibition; read-out: GI50 K-562.
Assay type: cell-based
Procedure, shortened: as §1
Compound COc1cc2c(cc1O)CCn1c-2cc2c3cc(OC)c(O)cc3oc(=O)c21 [Compound 196] has a GI50 of 0.234 µM.

Same assay, conditions: Homo sapiens, K562, K-562; cell killing (cytotoxic effect); read-out: LC50 K-562
With COc1cc2c(cc1O)CCn1c-2cc2c3cc(OC)c(O)cc3oc(=O)c21 [Compound 196] the CC50 was 1.5 µM.

Same assay, conditions: Homo sapiens, K562, K-562; total growth inhibition (cytostatic effect); read-out: TGI K-562
For COc1cc2c(cc1O)CCn1c-2cc2c3cc(OC)c(O)cc3oc(=O)c21 [Compound 196], the IC (TGI) was 0.614 µM.

The compounds below were run on HeLa-APL (assay: SRB colorimetric cell growth inhibition assay, HeLa-APL (aplidine resistant)). Conditions: Homo sapiens, HELA-APL; GI=growth inhibition; read-out: GI50 HELA-APL.
Assay type: cell-based
Procedure, shortened: as §1
COc1cc2c(cc1O)CCn1c-2cc2c3cc(OC)c(O)cc3oc(=O)c21 [Compound 196] was tested, and the GI50 was 0.117 µM.

Same assay, conditions: Homo sapiens, HELA-APL; cell killing (cytotoxic effect); read-out: LC50 HELA-APL
COc1cc2c(cc1O)CCn1c-2cc2c3cc(OC)c(O)cc3oc(=O)c21 [Compound 196] gave a CC50 of 1.92 µM.

Same assay, conditions: Homo sapiens, HELA-APL; total growth inhibition (cytostatic effect); read-out: TGI HELA-APL
COc1cc2c(cc1O)CCn1c-2cc2c3cc(OC)c(O)cc3oc(=O)c21 [Compound 196] gave an IC (TGI) of 0.511 µM.

Each compound was assayed on HT-29 (assay: SRB colorimetric cell growth inhibition assay, HT-29). Conditions: Homo sapiens, HT-29, HT-29; GI=growth inhibition; read-out: GI50 HT-29.
Assay type: cell-based
Procedure, shortened: as §1
Work on COc1cc2c(cc1O)CCn1c-2cc2c3cc(OC)c(O)cc3oc(=O)c21 [Compound 196] yielded a GI50 of 8.46 µM.

Same assay, conditions: Homo sapiens, HT-29, HT-29; cell killing (cytotoxic effect); read-out: LC50 HT-29
Compound COc1cc2c(cc1O)CCn1c-2cc2c3cc(OC)c(O)cc3oc(=O)c21 [Compound 196] has a CC50 of 26.4 µM.

Same assay, conditions: Homo sapiens, HT-29, HT-29; total growth inhibition (cytostatic effect); read-out: TGI HT-29
In the case of COc1cc2c(cc1O)CCn1c-2cc2c3cc(OC)c(O)cc3oc(=O)c21 [Compound 196], the IC (TGI) is reported as 26.4 µM.

Each compound was assayed on IGROV-ET (assay: SRB colorimetric cell growth inhibition assay, IGROV-ET (ET-743 resistant)). Conditions: Homo sapiens, IGROV-ET; GI=growth inhibition; read-out: GI50 IGROV-ET.
Assay type: cell-based
Procedure, shortened: as §1
COc1cc2c(cc1O)CCn1c-2cc2c3cc(OC)c(O)cc3oc(=O)c21 [Compound 196] gave a GI50 of 0.849 µM.

Same assay, conditions: Homo sapiens, IGROV-ET; cell killing (cytotoxic effect); read-out: LC50 IGROV-ET
COc1cc2c(cc1O)CCn1c-2cc2c3cc(OC)c(O)cc3oc(=O)c21 [Compound 196] was tested, and the CC50 was 26.4 µM.

Same assay, conditions: Homo sapiens, IGROV-ET; total growth inhibition (cytostatic effect); read-out: TGI IGROV-ET
COc1cc2c(cc1O)CCn1c-2cc2c3cc(OC)c(O)cc3oc(=O)c21 [Compound 196] showed an IC (TGI) of 3.85 µM.

The compounds below were run on HeLa (assay: SRB colorimetric cell growth inhibition assay, HeLa). Conditions: Homo sapiens, HeLa; GI=growth inhibition; read-out: GI50 HELA.
Assay type: cell-based
Procedure, shortened: as §1
COc1cc2c(cc1O)CCn1c-2cc2c3cc(OC)c(O)cc3oc(=O)c21 [Compound 196] gave a GI50 of 0.351 µM.

Same assay, conditions: Homo sapiens, HeLa; cell killing (cytotoxic effect); read-out: LC50 HELA
With COc1cc2c(cc1O)CCn1c-2cc2c3cc(OC)c(O)cc3oc(=O)c21 [Compound 196] the CC50 was 26.4 µM.

Same assay, conditions: Homo sapiens, HeLa; total growth inhibition (cytostatic effect); read-out: TGI HELA
With COc1cc2c(cc1O)CCn1c-2cc2c3cc(OC)c(O)cc3oc(=O)c21 [Compound 196] the IC (TGI) was 1.93 µM.

What follows are compounds tested on LoVo-Dox (assay: SRB colorimetric cell growth inhibition assay, LoVo-Dox (MDR)). Conditions: Homo sapiens, LOVO-DOX; GI=growth inhibition; read-out: GI50 LOVO-DOX.
Assay type: cell-based
Procedure, shortened: as §1
Compound COc1cc2c(cc1O)CCn1c-2cc2c3cc(OC)c(O)cc3oc(=O)c21 [Compound 196] has a GI50 of 0.517 µM.

Same assay, conditions: Homo sapiens, LOVO-DOX; cell killing (cytotoxic effect); read-out: LC50 LOVO-DOX
COc1cc2c(cc1O)CCn1c-2cc2c3cc(OC)c(O)cc3oc(=O)c21 [Compound 196] showed a CC50 of 26.4 µM.

Same assay, conditions: Homo sapiens, LOVO-DOX; total growth inhibition (cytostatic effect); read-out: TGI LOVO-DOX
For COc1cc2c(cc1O)CCn1c-2cc2c3cc(OC)c(O)cc3oc(=O)c21 [Compound 196], the IC (TGI) was 26.4 µM.

Each compound was assayed on IGROV (assay: SRB colorimetric cell growth inhibition assay, IGROV). Conditions: Homo sapiens, IGROV; GI=growth inhibition; read-out: GI50 IGROV.
Assay type: cell-based
Procedure, shortened: as §1
With COc1cc2c(cc1O)CCn1c-2cc2c3cc(OC)c(O)cc3oc(=O)c21 [Compound 196] the GI50 was 0.691 µM.

Same assay, conditions: Homo sapiens, IGROV; cell killing (cytotoxic effect); read-out: LC50 IGROV
COc1cc2c(cc1O)CCn1c-2cc2c3cc(OC)c(O)cc3oc(=O)c21 [Compound 196] was tested, and the CC50 was 16.5 µM.

Same assay, conditions: Homo sapiens, IGROV; total growth inhibition (cytostatic effect); read-out: TGI IGROV
Compound COc1cc2c(cc1O)CCn1c-2cc2c3cc(OC)c(O)cc3oc(=O)c21 [Compound 196] has an IC (TGI) of 2.49 µM.

These compounds were tested on DU-145 (assay: SRB colorimetric cell growth inhibition assay, DU-145). Conditions: Homo sapiens, DU-145, DU-145; GI=growth inhibition; read-out: GI50 DU-145.
Assay type: cell-based
Procedure, shortened: as §1
COc1cc2c(cc1O)CCn1c-2cc2c3cc(OC)c(O)cc3oc(=O)c21 [Compound 196] gave a GI50 of 0.414 µM.

Same assay, conditions: Homo sapiens, DU-145, DU-145; cell killing (cytotoxic effect); read-out: LC50 DU-145
COc1cc2c(cc1O)CCn1c-2cc2c3cc(OC)c(O)cc3oc(=O)c21 [Compound 196] gave a CC50 of 11.2 µM.

Same assay, conditions: Homo sapiens, DU-145, DU-145; total growth inhibition (cytostatic effect); read-out: TGI DU-145
COc1cc2c(cc1O)CCn1c-2cc2c3cc(OC)c(O)cc3oc(=O)c21 [Compound 196] showed an IC (TGI) of 1.65 µM.

What follows are compounds tested on LNCaP (assay: SRB colorimetric cell growth inhibition assay, LNCaP). Conditions: Homo sapiens, LNCaP, LN-caP; GI=growth inhibition; read-out: GI50 LN-caP.
Assay type: cell-based
Procedure, shortened: as §1
COc1cc2c(cc1O)CCn1c-2cc2c3cc(OC)c(O)cc3oc(=O)c21 [Compound 196] showed a GI50 of 0.398 µM.

Same assay, conditions: Homo sapiens, LNCaP, LN-caP; cell killing (cytotoxic effect); read-out: LC50 LN-caP
For COc1cc2c(cc1O)CCn1c-2cc2c3cc(OC)c(O)cc3oc(=O)c21 [Compound 196], the CC50 was 9.78 µM.

Same assay, conditions: Homo sapiens, LNCaP, LN-caP; total growth inhibition (cytostatic effect); read-out: TGI LN-caP
For COc1cc2c(cc1O)CCn1c-2cc2c3cc(OC)c(O)cc3oc(=O)c21 [Compound 196], the IC (TGI) was 1.45 µM.

These compounds were tested on A-549 (assay: SRB colorimetric cell growth inhibition assay, A-549). Conditions: Homo sapiens, A549, A-549; GI=growth inhibition; read-out: GI50 A-549.
Assay type: cell-based
Procedure, shortened: as §1
With COc1cc2c(cc1O)CCn1c-2cc2c3cc(OC)c(O)cc3oc(=O)c21 [Compound 196] the GI50 was 1.68 µM.

Same assay, conditions: Homo sapiens, A549, A-549; cell killing (cytotoxic effect); read-out: LC50 A-549
COc1cc2c(cc1O)CCn1c-2cc2c3cc(OC)c(O)cc3oc(=O)c21 [Compound 196] was tested, and the CC50 was 26.4 µM.

Same assay, conditions: Homo sapiens, A549, A-549; total growth inhibition (cytostatic effect); read-out: TGI A-549
COc1cc2c(cc1O)CCn1c-2cc2c3cc(OC)c(O)cc3oc(=O)c21 [Compound 196] gave an IC (TGI) of 26.4 µM.

What follows are compounds tested on LoVo (assay: SRB colorimetric cell growth inhibition assay, LoVo). Conditions: Homo sapiens, LoVo; GI=growth inhibition; read-out: GI50 LOVO.
Assay type: cell-based
Procedure, shortened: as §1
COc1cc2c(cc1O)CCn1c-2cc2c3cc(OC)c(O)cc3oc(=O)c21 [Compound 196] gave a GI50 of 0.799 µM.

Same assay, conditions: Homo sapiens, LoVo; cell killing (cytotoxic effect); read-out: LC50 LOVO
In the case of COc1cc2c(cc1O)CCn1c-2cc2c3cc(OC)c(O)cc3oc(=O)c21 [Compound 196], the CC50 is reported as 26.4 µM.

Same assay, conditions: Homo sapiens, LoVo; total growth inhibition (cytostatic effect); read-out: TGI LOVO
For COc1cc2c(cc1O)CCn1c-2cc2c3cc(OC)c(O)cc3oc(=O)c21 [Compound 196], the IC (TGI) was 3.53 µM.

These compounds were tested on PANC-1 (assay: SRB colorimetric cell growth inhibition assay, PANC-1). Conditions: Homo sapiens, PANC-1, PANC-1; GI=growth inhibition; read-out: GI50 PANC-1.
Assay type: cell-based
Procedure, shortened: as §1
For COc1cc2c(cc1O)CCn1c-2cc2c3cc(OC)c(O)cc3oc(=O)c21 [Compound 196], the GI50 was 0.957 µM.

Same assay, conditions: Homo sapiens, PANC-1, PANC-1; cell killing (cytotoxic effect); read-out: LC50 PANC-1
In the case of COc1cc2c(cc1O)CCn1c-2cc2c3cc(OC)c(O)cc3oc(=O)c21 [Compound 196], the CC50 is reported as 26.4 µM.

Same assay, conditions: Homo sapiens, PANC-1, PANC-1; total growth inhibition (cytostatic effect); read-out: TGI PANC-1
Compound COc1cc2c(cc1O)CCn1c-2cc2c3cc(OC)c(O)cc3oc(=O)c21 [Compound 196] has an IC (TGI) of 7.25 µM.
